{
  "source": "paper PMC11373624",
  "about": "“Development and preclinical characterization of a novel radiotheranostic EphA2-targeting bicyclic peptide” (Theranostics, 2024)",
  "target": "T1, Human EphA2 (Homo sapiens, UniProt P29317)",
  "T1 construct": "Human EphA2 (residues 27-529) was cloned into pEXPR-IBA44; made in house; host or cells: HEK293 f/s cells",
  "T1 sequence (P29317 27-529)": "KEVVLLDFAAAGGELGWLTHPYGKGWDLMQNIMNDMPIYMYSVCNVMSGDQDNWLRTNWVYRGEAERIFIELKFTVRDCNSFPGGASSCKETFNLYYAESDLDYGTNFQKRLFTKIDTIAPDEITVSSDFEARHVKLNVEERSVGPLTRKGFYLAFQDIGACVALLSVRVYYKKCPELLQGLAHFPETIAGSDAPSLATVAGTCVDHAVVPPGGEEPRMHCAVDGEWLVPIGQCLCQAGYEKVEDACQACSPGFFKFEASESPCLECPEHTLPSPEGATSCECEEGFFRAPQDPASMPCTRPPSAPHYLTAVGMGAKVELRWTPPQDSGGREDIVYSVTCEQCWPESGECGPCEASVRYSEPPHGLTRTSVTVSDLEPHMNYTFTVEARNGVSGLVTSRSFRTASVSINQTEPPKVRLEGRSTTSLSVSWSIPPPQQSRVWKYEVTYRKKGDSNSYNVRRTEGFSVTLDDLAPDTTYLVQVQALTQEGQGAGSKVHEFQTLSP",
  "test": "SPR binding to human EphA2",
  "experimental": "Human EphA2 (residues 27-529) was cloned into pEXPR-IBA44 between the 5' NheI and 3' BsaI sites to make constructs expressing a BM40 signal sequence and C-terminal 6xHIS tag. For the expression and purification of the protein, HEK293 f/s cells at 1 x 10^6/mL in freestyle media (Thermo Fisher) were transfected with 1 µg DNA per million cells by PEI either 2:1 or 3:1 PEI:DNA ratio. On day 2 valproic acid was added to a 2.2 mM concentration. The supernatant was harvested 5 days post transfection and loaded on a 1 ml Ni-NTA agarose resin (Thermo Fisher) (wash buffer: 20 mM HEPES pH 7.6, 0.5 M NaCl, 5 mM imidazole, 0.01% Tween-20 buffer; elution buffer: 20 mM HEPES pH 7.6, 0.5 M NaCl, 300 mM imidazole, 0.01% Tween-20). The protein was concentrated to a volume of 2 mL, loaded onto an S-200 Superdex column (GE Healthcare) and eluted with 20 mM HEPES pH 7.6, 150 mM NaCl, 0.01% Tween-20 at a flow rate of 1 mL/min. Fractions were collected and those containing human EphA2 protein were concentrated for further use.\nSPR experiments were performed on a Biacore 8K+ (Cytiva Life Sciences, USA) instrument, with methods matched for both human and mouse EphA2 protein. Protein was captured on to a Cytiva NTA sensor chip (Cytiva Life Sciences), via the expressed His-tag; this was followed by primary amine coupling chemistry to covalently immobilize the protein to the chip at 25°C. Initially the surface was injected with 0.5 mM NiCl2 for 2 minutes, followed by activation of the carboxymethyl dextran surface for 7 minutes using an injection of a 1:1 ratio of 0.4 M 1-ethyl-3-(3-dimethylaminopropyl) carbodiimide hydrochloride (EDC)/0.1 M N-hydroxy succinimide (NHS) at a flow rate of 10 µL/min.\nHuman EphA2 protein was captured to the Ni-NTA surface to a level of 200-300 RU and Mouse EphA2 to 500-800 RU; the residual activated groups were then blocked with a 7 minute injection of 1 M ethanolamine (pH 8.5):HBS-N (1:1). Finally, the Ni-NTA surface was chelated with a 1-minute injection of 350 mM EDTA.\nPeptide was prepared in PBS/0.05% Tween 20 with a final DMSO concentration of 0.5%. The top peptide concentration was 100 or 500 nM and 5 further 3-fold dilutions. The peptide was titrated over the chip using single cycle kinetics at 25°C at a flow rate of 75 µL/min with 60 second association and 4000 second dissociation. All data were double referenced for blank injections and reference surface using standard processing procedures. Data was characterized with a 1:1 kinetic binding model to determine kinetic rate constants ka (M^-1s^-1) and kd (s^-1) and equilibrium dissociation constant KD (nM). All data processing was performed using Cytiva Insight Evaluation (Cytiva Life Sciences, USA).",
  "note": "Numbered stars: 1 amine (or outer) side, 2 acyl side, 3 side chain; on linkers, the order of the positions; unused ones are H or OH. Bridge positions count the residues as written; N and C are the ends. Square brackets hold non-standard residues; d marks the D form. Peptide text beside a SMILES is read from it. * marks the point of attachment. DOTA = O=C(O)CN1CCN(CC(=O)O)CCN(CC(=O)*)CCN(CC(=O)O)CC1; TATA = O=C(CC[*:1])N1CN(C(=O)CC[*:2])CN(C(=O)CC[*:3])C1; d(hArg) = N=C(N)NCCCC[C@@H](N)C(=O)O; dHyp = O=C(O)[C@H]1C[C@H](O)CN1; dCba = N[C@H](CC1CCC1)C(=O)O; βAla = NCCC(=O)O; Sar = CNCC(=O)O",
  "data": [
    {"compound": "CC(C)C[C@H]1NC(=O)[C@H]2CCCN2C(=O)[C@@H](CC(N)=O)NC(=O)[C@@H](C(C)C)NC(=O)[C@@H](CC2CCC2)NC(=O)[C@H]2C[C@H](O)CN2C(=O)[C@H](NC(=O)[C@@H](CC(=O)O)NC(=O)[C@@H](CCCCNC(=N)N)NC(=O)[C@@H](C)NC(=O)CN(C)C(=O)CN(C)C(=O)CN(C)C(=O)CN(C)C(=O)CN(C)C(=O)CN(C)C(=O)CN(C)C(=O)CN(C)C(=O)CN(C)C(=O)CN(C)C(=O)CCNC(=O)CN2CCN(CC(=O)O)CCN(CC(=O)O)CCN(CC(=O)O)CC2)CSCCC(=O)N2CN3CN(C2)C(=O)CCSC[C@@H](NC1=O)C(=O)N[C@H](CC(C)C)C(=O)N[C@H](Cc1c[nH]cn1)C(=O)N1CCC[C@@H]1C(=O)N[C@@H](CC(=O)O)C(=O)N[C@H](Cc1c[nH]c2ccccc12)C(=O)N[C@H](CCCCNC(=N)N)C(=O)N[C@@H](C(N)=O)CSCCC3=O", "note": "[BCY26443, [DOTA]-[B-Ala]-[Sar10]-[dAla]-[dHArg]-[dAsp]-[dCys]-[dHyP]-[dCba]-[dVal]-[dAsn]-[dPro]-[dLeu]-[dCys]-[dLeu]-[dHis]-[dPro]-Asp-[dTrp]-[dHArg]-[dCys]-CONH2] ({DOTA-βAla}-[Sar][Sar][Sar][Sar][Sar][Sar][Sar][Sar][Sar][Sar][dA][d(hArg)][dD][dC][dHyp][dCba][dV][dN][dP][dL][dC][dL][dH][dP]D[dW][d(hArg)][dC]-NH2; linker 14-21-28 via TATA)", "values": [
      {"measurement": "Kd", "setting": "human EphA2, read-out: no binding up to (peptide concentration)", "result": "> 5", "unit": "µM"},
      {"measurement": "binding to human EphA2 by SPR", "setting": "in words", "result": "no binding"}
    ]}
  ]
}
